Laboratory results from ChEMBL document CHEMBL5729714, “Indazoles as hematopoietic progenitor kinase 1 (HPK1) inhibitors and methods using same” (2023).

Biological target: Mitogen-activated protein kinase kinase kinase kinase 1 (Homo sapiens, UniProt Q92918)
Test: ADP-Glo kinase assay: HPK1 kinase activity was measured by Promega's ADP-Glo™ kinase assay. In this assay, 5 ng of recombinant human HPK1 (signalchem) is incubated with 5 μL of compounds (0.5% DMSO), 5 μL of MBP (0.5 μg/μl) and 5 μL of ATP (25 μM) in buffer (40 mM Tris, 7.5; 20 mM MgCl2; 0.1 mg/ml BSA; 5 μM DTT). The assay was started by incubating the reaction mixture in a 96-well plate at 30′ C for 40 minutes. After the incubation, 25 uL ADP-Glo reagent was added and the reaction was incubated at room temperature for 40-min to stop the reaction and degrade residual ATP. The ADP product was then converted to ATP by adding 50 uL per well of detection reagent. Luminescence was detected after 30-min room temperature incubation with the Molecular device I3X plate reader. The IC50 values were calculated from a series of percent inhibition values determined at a range of inhibitor concentration using software routines as implemented in the GraphPad Prism 7 software and SigmaPlot13.0.

Chain of Mitogen-activated protein kinase kinase kinase kinase 1 (Q92918 whole entry): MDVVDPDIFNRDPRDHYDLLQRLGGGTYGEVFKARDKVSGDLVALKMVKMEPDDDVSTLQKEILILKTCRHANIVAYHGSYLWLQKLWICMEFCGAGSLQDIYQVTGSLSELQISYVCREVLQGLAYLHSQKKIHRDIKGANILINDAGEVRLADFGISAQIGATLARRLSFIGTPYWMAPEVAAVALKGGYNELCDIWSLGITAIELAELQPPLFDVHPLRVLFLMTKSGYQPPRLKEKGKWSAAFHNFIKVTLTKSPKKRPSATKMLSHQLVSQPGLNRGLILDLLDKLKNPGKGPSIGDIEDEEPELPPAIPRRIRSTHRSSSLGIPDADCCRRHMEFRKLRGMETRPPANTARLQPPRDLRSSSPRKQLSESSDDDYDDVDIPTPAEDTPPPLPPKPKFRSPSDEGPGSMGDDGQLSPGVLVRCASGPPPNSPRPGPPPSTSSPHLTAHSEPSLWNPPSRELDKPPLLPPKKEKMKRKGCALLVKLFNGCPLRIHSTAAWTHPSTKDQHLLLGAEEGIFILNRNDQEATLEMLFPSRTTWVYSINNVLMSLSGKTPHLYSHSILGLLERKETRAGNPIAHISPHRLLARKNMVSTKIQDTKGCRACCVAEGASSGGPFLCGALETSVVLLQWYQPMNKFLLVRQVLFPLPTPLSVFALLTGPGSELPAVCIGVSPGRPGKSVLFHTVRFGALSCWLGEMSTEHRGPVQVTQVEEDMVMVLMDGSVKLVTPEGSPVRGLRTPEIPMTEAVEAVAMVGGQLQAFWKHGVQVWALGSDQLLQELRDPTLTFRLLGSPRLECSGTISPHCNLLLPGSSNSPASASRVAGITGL

SMILES	IC50 [nM]
CSc1c(F)c(C)c(-c2ccc3nc(NC(=O)[C@@H]4C[C@@H]4F)sc3n2)c2cn[nH]c12	< 100
Cc1c(F)c([S+](C)[O-])c2[nH]ncc2c1-c1ccn2nc(NC(=O)[C@@H]3C[C@@H]3F)cc2c1 (some centres undefined)	< 100
O=C(Nc1cn2cc(-c3c(Cl)c(F)c(NC4=NCCN4)c4[nH]ncc34)ccc2n1)[C@@H]1C[C@@H]1F	< 100
O=C(Nc1cn2cc(-c3c(Cl)c(F)c(CN4CCCC4)c4[nH]ncc34)ccc2n1)[C@@H]1C[C@@H]1F	< 100
C=Cc1c(F)cc2[nH]ncc2c1-c1ccc2nc(NC(=O)[C@@H]3C[C@@H]3F)sc2c1	< 100
CNC(=O)CSc1c(F)c(Cl)c(-c2ccc3nc(NC(=O)[C@@H]4C[C@@H]4F)sc3c2)c2cn[nH]c12	< 100
CSc1c(F)c(SC)c2[nH]ncc2c1-c1ccc2nc(NC(=O)[C@@H]3C[C@@H]3F)sc2c1	< 100
CCN(C)c1c(F)c(C)c(-c2ccc3nc(NC(=O)[C@@H]4C[C@@H]4F)cn3c2)c2cn[nH]c12	< 100
CSc1c(F)c(C)c(-c2ccn3nc(NC(=O)[C@H]4C[C@@H]4F)cc3c2)c2cn[nH]c12	< 100
CC(=O)Nc1c(F)c(C)c(-c2ccn3nc(NC(=O)[C@@H]4C[C@@H]4F)cc3c2)c2cn[nH]c12	< 100
N#Cc1c(F)c(Cl)c(-c2ccc3nc(NC(=O)[C@@H]4C[C@@H]4F)sc3c2)c2cn[nH]c12	< 100
CSc1c(F)c(C)c(-c2ccn3nc(NC(=O)[C@H]4C[C@H]4F)cc3c2)c2cn[nH]c12	< 100
O=C(Nc1cn2cc(-c3c(Br)c(F)cc4[nH]ncc34)ccc2n1)[C@@H]1C[C@@H]1F	< 100
CC(=O)N(C)c1c(F)c(C)c(-c2ccc3nc(NC(=O)[C@@H]4C[C@@H]4F)cn3c2)c2cn[nH]c12	< 100
Cc1c(F)c(S(C)(=O)=O)c2[nH]ncc2c1-c1ccc2nc(NC(=O)[C@@H]3C[C@@H]3F)sc2n1	> 1000
O=C(Nc1cc2cc(-c3c(Cl)c(F)c(C(O)C(F)(F)F)c4[nH]ncc34)ccn2n1)[C@@H]1C[C@@H]1F (some centres undefined)	< 100
N#CCSc1c(F)c(Cl)c(-c2ccn3nc(NC(=O)[C@@H]4C[C@@H]4F)cc3c2)c2cn[nH]c12	< 100
CSc1c(F)c(C)c(-c2ccn3nc(NC(=O)C4CC4)cc3c2)c2cn[nH]c12	< 100
CCN(C)c1c(F)c(C)c(-c2ccc3nc(NC(=O)[C@@H]4C[C@@H]4F)sc3n2)c2cn[nH]c12	< 100
CSc1c(F)c(C)c(-c2ccn3nc(NC(=O)[C@@H]4C[C@H]4F)cc3c2)c2cn[nH]c12	< 100
CCc1c(F)c(SC(C)C#N)c2[nH]ncc2c1-c1ccn2nc(NC(=O)[C@@H]3C[C@@H]3F)cc2c1 (some centres undefined)	< 100
O=C(Nc1nc2ccc(-c3c(Cl)c(F)c(N4CCCC4)c4[nH]ncc34)cc2s1)[C@@H]1C[C@@H]1F	< 100
O=C(Nc1cn2cc(-c3c(Cl)c(F)c(NC4CCOC4)c4[nH]ncc34)ccc2n1)[C@@H]1C[C@@H]1F (some centres undefined)	< 100
CC(=O)N(C)c1c(F)c(C)c(-c2ccn3nc(NC(=O)[C@@H]4C[C@@H]4F)cc3c2)c2cn[nH]c12	< 100
O=C(Nc1cc2cc(-c3c(Cl)c(F)c(CO)c4[nH]ncc34)ccn2n1)[C@@H]1C[C@@H]1F	< 100
O=C(Nc1cc2cc(-c3c(C(F)(F)F)c(F)cc4[nH]ncc34)ccn2n1)[C@@H]1C[C@@H]1F	< 100
CCN(C)c1c(F)c(C)c(-c2ccc3nc(NC(=O)[C@@H]4C[C@@H]4F)sc3c2)c2cn[nH]c12	< 100
CCN(C)c1c(F)c(Cl)c(-c2ccc3nc(NC(=O)[C@@H]4C[C@@H]4F)sc3n2)c2cn[nH]c12	< 100
CC(=O)N(C)c1c(F)c(C)c(-c2ccc3nc(NC(=O)[C@@H]4C[C@@H]4F)sc3n2)c2cn[nH]c12	< 100

Results, then the compound that gave them:

IC50 [nM]	SMILES
< 100	CS(=O)(=O)Cc1c(F)c(Cl)c(-c2ccc3nc(NC(=O)[C@@H]4C[C@@H]4F)cn3c2)c2cn[nH]c12
< 100	CSC(C)c1c(F)c(Cl)c(-c2ccc3nc(NC(=O)[C@@H]4C[C@@H]4F)cn3c2)c2cn[nH]c12 (some centres undefined)
< 100	O=C(Nc1cn2cc(-c3c(Cl)c(F)c(CO)c4[nH]ncc34)ccc2n1)[C@@H]1C[C@@H]1F
< 100	C[S+]([O-])Cc1c(F)c(Cl)c(-c2ccc3nc(NC(=O)[C@@H]4C[C@@H]4F)cn3c2)c2cn[nH]c12 (some centres undefined)
< 100	Cn1cccc1-c1c(F)c(Cl)c(-c2ccc3nc(NC(=O)[C@@H]4C[C@@H]4F)cn3c2)c2cn[nH]c12
< 100	CC(F)c1c(F)c(Cl)c(-c2ccc3nc(NC(=O)[C@@H]4C[C@@H]4F)cn3c2)c2cn[nH]c12 (some centres undefined)
< 100	O=C(Nc1cn2cc(-c3c(Cl)c(F)c(C(F)C(F)(F)F)c4[nH]ncc34)ccc2n1)[C@@H]1C[C@@H]1F (some centres undefined)
< 100	COC(c1c(F)c(Cl)c(-c2ccc3nc(NC(=O)[C@@H]4C[C@@H]4F)cn3c2)c2cn[nH]c12)C(F)(F)F (some centres undefined)
< 100	CC(O)c1c(F)c(Cl)c(-c2ccc3nc(NC(=O)[C@@H]4C[C@@H]4F)cn3c2)c2cn[nH]c12 (some centres undefined)
< 100	CCOC(c1c(F)c(Cl)c(-c2ccc3nc(NC(=O)[C@@H]4C[C@@H]4F)cn3c2)c2cn[nH]c12)C(F)(F)F (some centres undefined)
< 100	CSCc1c(F)c(Cl)c(-c2ccc3nc(NC(=O)[C@@H]4C[C@@H]4F)cn3c2)c2cn[nH]c12
< 100	O=C(Nc1cn2cc(-c3c(Cl)c(F)c(-c4cc[nH]c4)c4[nH]ncc34)ccc2n1)[C@@H]1C[C@@H]1F
< 100	O=C(Nc1cn2cc(-c3c(Cl)c(F)c(C(O)C(F)(F)F)c4[nH]ncc34)ccc2n1)[C@@H]1C[C@@H]1F (some centres undefined)
< 100	N#CC(NC=O)c1c(F)c(Cl)c(-c2ccc3nc(NC(=O)[C@@H]4C[C@@H]4F)cn3c2)c2cn[nH]c12 (some centres undefined)
< 100	Cn1nccc1-c1c(F)c(Cl)c(-c2ccc3nc(NC(=O)[C@@H]4C[C@@H]4F)cn3c2)c2cn[nH]c12
< 100	Cn1ccc(-c2c(F)c(Cl)c(-c3ccc4nc(NC(=O)[C@@H]5C[C@@H]5F)cn4c3)c3cn[nH]c23)c1
< 100	COC(C)c1c(F)c(Cl)c(-c2ccc3nc(NC(=O)[C@@H]4C[C@@H]4F)cn3c2)c2cn[nH]c12 (some centres undefined)
< 100	Cn1ccnc1Sc1c(F)c(Cl)c(-c2ccc3nc(NC(=O)[C@@H]4C[C@@H]4F)cn3c2)c2cn[nH]c12
< 100	CC(Nc1c(F)c(Cl)c(-c2ccc3nc(NC(=O)[C@@H]4C[C@@H]4F)cn3c2)c2cn[nH]c12)C(=O)N(C)C (some centres undefined)
< 100	CC(c1c(F)c(Cl)c(-c2ccc3nc(NC(=O)[C@@H]4C[C@@H]4F)cn3c2)c2cn[nH]c12)n1ncnn1 (some centres undefined)
